The text below walks through data of US12703718B2, “Compositions and compounds for co-delivery of uridine and ketoleucine” (PHARMA CINQ, LLC, priority 2021, dated 2026).

SMILES strings stand for the structures. Where two headings read alike, the source gives them in different places.

In data set [1] the test system is Female CD-1 mice treated with 3-nitropropionic acid (3-NP). As to the kind of experiment: Protective effects in 3-NP mouse model of mitochondrial dysfunction (survival, weight loss). The data set is classed as in vivo. The note with it: for Survival at d 8: 3-NP 65 mg/Kg ip daily, survivors/10 mice. The method, then: A combination of uridine triacetate and ketoleucine was assessed in a model of progressive and lethal impairment of mitochondrial oxidative phosphorylation. 3-nitropropionic acid (3-NP), an irreversible inhibitor of Complex II of the mitochondrial electron transport chain. Daily administration of 3-NP results in progressive loss of mitochondrial reserve energy capacity, until the threshold for baseline energy requirements for survival is breached, resulting in mortality from both heart failure and central nervous system dysfunction.
In this study, uridine triacetate was administered as either by gavage as an oral bolus, or by incorporation into rodent chow at a concentration of 4% w/w. Similarly, ketoleucine (in the form of its sodium salt; NaKL) was administered in different groups by gavage or by dissolving it in drinking water. Sodium chloride (NaCl) was used as a control substance in some groups to account for the sodium load from the ketoleucine salt. • Chemical(s): Hydroxypropyl methyl cellulose (HPMC), cat #H3785, Lot #SLBS5701, CAS 9004-65-3, SIGMA-Aldrich. Uridine Triacetate for gavage (UTA), item, D000156, Lot #Q000001095, Almac Sciences, Uridine Triacetate in the diet (UTA), item & Lot #, D000302, 2148-070, Project #1314A0071A, recovery of material from R-104 Lot Q000003578, Almac Sciences, Sodium Chloride (NaCl), VWR, Cat #BDH9286-500G, Lot #1976C500, CAS 7647-14-5, 4-methyl-2-oxovaleric acid sodium salt (ketoLeucine: NaKL), cat #M326425, Lot #1-AWT-36-1, CAS4502-00-5, Toronto Research Chemicals, and 3-nitropropionic acid (3NP), cat #N5636, Lot #11101616, CAS 504-88-1, SIGMA-Aldrich. • Vehicle(s): UTA, NaKL, or NaCl in suspensions was prepared in 0.75% HPMC. NaCL or NaKL in the drinking water were prepared by dissolving in water. 3-NP solutions were prepared in water. • Dosing Formulation(s): Preparation: UTA was suspended in 0.75% HPMC at 50 mg/ml. NaKL will be suspended in 0.75% HPMC at 100 mg/ml, or included in the drinking water at 15.8 mg/ml. […]

The conditions of data set [2]: oral; cited from earlier work.
For data set [3] the following is noted: oral, mice; cited from earlier work.
For data set [4] the following is noted: oral, humans; cited from earlier work.

For the molecule `CC(=O)OC[C@H]1O[C@@H](n2ccc(=O)[nH]c2=O)[C@H](OC(C)=O)[C@@H]1OC(C)=O` [UTA, 2′,3′,5,-tri-O-acetyluridine], the “Survival at d 8” value was 0/10 in data set [1] (Group 1: 4% UTA diet, NaCl in drinking water, no gavage); 1/10 in data set [1] (Group 3: normal chow, regular water, UTA 1000 mg/Kg and NaCl by gavage 7 AM and 4 PM). In addition, in data set [1] (bolus (gavage) uridine triacetate with or without NaKL (Groups 3-5) versus 4% (w/w) uridine triacetate in chow (Groups 1 and 2)), the “Protection against weight loss, comparison between groups” value is given as “better protection against weight loss”. In addition, in data set [2], the bioavailability result is listed as “approximately 50%”.

As for `O=c1ccn([C@@H]2O[C@H](CO)[C@@H](O)[C@H]2O)c(=O)[nH]1` [uridine], the bioavailability result in data set [3] and in data set [4] was “approximately 7%” each time.
